Test results reported in patent US9255094B2, “Pyrido[4,3-B]indoles and methods of use” (Medivation Technologies, Inc., priority 2009, dated 2016).

How the values were obtained:
[1] = target: T1, rat adrenergic α1A receptor (Rattus norvegicus, UniProt P43140); assay: Adrenergic α1A radioligand binding assay ([3H]Prozosin); conditions: compound at 0.1 μM; 0.25 nM [3H]Prozosin; Wistar Rat submaxillary glands; read-out: Percent Inhibition of ligand binding, Adrenergic (0.1 μM) a1A
T1 construct: from tissue; host or cells: Wistar Rat submaxillary glands
T1 sequence (P43140 1-466): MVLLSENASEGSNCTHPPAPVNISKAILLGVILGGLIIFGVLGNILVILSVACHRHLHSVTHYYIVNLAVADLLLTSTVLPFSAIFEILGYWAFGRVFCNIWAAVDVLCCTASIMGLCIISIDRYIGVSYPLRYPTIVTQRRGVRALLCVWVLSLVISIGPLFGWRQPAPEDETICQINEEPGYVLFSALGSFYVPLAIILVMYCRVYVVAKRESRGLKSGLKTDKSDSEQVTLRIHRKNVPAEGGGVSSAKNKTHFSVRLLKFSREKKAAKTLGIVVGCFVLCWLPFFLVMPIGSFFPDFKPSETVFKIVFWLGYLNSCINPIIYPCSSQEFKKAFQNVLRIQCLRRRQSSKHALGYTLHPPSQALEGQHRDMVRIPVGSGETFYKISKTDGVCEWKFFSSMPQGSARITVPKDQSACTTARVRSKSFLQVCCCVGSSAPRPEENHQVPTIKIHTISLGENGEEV
Method: To evaluate in radioligand binding assays the activity of compounds of the invention, rat adrenergic α1A receptor obtained from Wistar Rat submaxillary glands (Michel, A. D. et al., Br. J. Pharmacol. 98:883, 1989) in a modified Tris-HCl buffer (50 mM Tris-HCl buffer, pH 7.4, 0.5 mM EDTA) is used. Compounds of the invention are incubated with 0.25 nM [^3H]Prozosin for 60 min at 25° C. Non-specific binding is estimated in the presence of 10 μM phentolamine. Receptor proteins are filtered and washed, the filters are then counted to determine [^3H]Prozosin specifically bound. Compounds of the invention are screened at 1 μM or lower, using 1% DMSO as vehicle. Compounds of the invention are tested in this biochemical assay and percent inhibition of specific binding is determined.

[2] = target: T2, human recombinant adrenergic α2B receptor (Homo sapiens, UniProt P18089); assay: Adrenergic α2B radioligand binding assay ([3H]Rauwolscine); conditions: compound at 0.1 μM; 2.5 nM [3H]Rauwolscine; CHO-K1 cells; read-out: Percent Inhibition of ligand binding, Adrenergic (0.1 μM) a2B
T2 construct: expressed in transfected cells; host or cells: Chinese hamster ovary (CHO-K1) cells
T2 sequence (P18089 1-450): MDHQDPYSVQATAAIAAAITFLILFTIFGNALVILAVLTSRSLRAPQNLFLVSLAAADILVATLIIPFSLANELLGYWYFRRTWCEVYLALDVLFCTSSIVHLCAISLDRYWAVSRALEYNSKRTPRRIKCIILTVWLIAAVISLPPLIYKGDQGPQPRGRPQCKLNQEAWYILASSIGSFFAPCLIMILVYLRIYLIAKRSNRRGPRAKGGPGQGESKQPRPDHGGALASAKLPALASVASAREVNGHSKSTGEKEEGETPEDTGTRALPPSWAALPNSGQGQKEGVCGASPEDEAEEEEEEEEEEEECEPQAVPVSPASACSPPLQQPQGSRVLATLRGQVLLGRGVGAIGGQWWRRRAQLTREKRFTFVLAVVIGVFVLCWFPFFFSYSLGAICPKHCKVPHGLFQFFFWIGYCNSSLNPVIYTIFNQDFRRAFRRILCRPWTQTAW
Method: To evaluate in radioligand binding assays the activity of compounds of the invention, human recombinant adrenergic α2B receptor expressed in Chinese hamster ovary (CHO-K1) cells (Uhlen S et al., Eur. J. Pharmacol. 343(1):93, 1998) in a modified Tris-HCl buffer (50 mM Tris-HCl, pH 7.4, 12.5 mM MgCl2, 1 mM EDTA, 0.2% BSA) was used. Compounds of the invention were incubated with 2.5 nM [^3H]Rauwolscine for 60 min at 25° C. Non-specific binding was estimated in the presence of 10 μM Prozosin. Receptor proteins were filtered and washed, the filters were then counted to determine [^3H]Rauwolscine specifically bound.

[3] = target: T3, human recombinant adrenergic α2A receptor (Homo sapiens, UniProt P08913); assay: Adrenergic α2A radioligand binding assay ([3H]MK-912); conditions: compound at 0.1 μM; 1 nM [3H]MK-912; insect Sf9 cells; read-out: Percent Inhibition of ligand binding, Adrenergic (0.1 μM) a2A
T3 construct: expressed in transfected cells; host or cells: insect Sf9 cells
T3 sequence (P08913 1-465): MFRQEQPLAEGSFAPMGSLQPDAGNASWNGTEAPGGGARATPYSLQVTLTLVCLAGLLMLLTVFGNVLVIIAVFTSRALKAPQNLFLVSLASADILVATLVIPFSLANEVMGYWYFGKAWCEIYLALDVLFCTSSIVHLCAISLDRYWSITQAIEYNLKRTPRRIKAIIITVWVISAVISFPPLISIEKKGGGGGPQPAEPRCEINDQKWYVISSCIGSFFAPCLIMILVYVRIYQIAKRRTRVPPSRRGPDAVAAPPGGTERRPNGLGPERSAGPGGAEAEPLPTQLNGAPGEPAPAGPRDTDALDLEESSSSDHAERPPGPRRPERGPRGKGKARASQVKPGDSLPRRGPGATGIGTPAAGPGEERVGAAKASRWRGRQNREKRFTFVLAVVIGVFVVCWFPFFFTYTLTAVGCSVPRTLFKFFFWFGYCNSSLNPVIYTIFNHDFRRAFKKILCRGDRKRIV
Method: To evaluate in radioligand binding assays the activity of compounds of the invention, human recombinant adrenergic α2A receptor expressed in insect Sf9 cells (Uhlen S et al. J. Pharmacol. Exp. Ther. 271:1558, 1994) in a modified Tris-HCl buffer (50 mM Tris-HCl, pH 7.4, 12.5 mM MgCl2, 2 mM EDTA) was used. Compounds of invention were incubated with 1 nM [^3H]MK-912 for 60 min at 25° C. MK912 is (2S-trans)-1,3,4,5′,6,6′,7,12b-octahydro-1′,3′-dimethyl-spiro[2H-benzofuro[2,3-a]quinolizine-2,4′(1′H)-pyrimidin]-2′(3′H)-one hydrochloride Non-specific binding was estimated in the presence of 10 μM WB-4101 (2-(2,6-dimethoxyphenoxyethyl)aminomethyl-1,4-benzodioxane hydrochloride). Receptor proteins were filtered and washed, the filters were then counted to determine [^3H]MK-912 specifically bound.

[4] = target: T4, human recombinant serotonin (5-Hydroxytryptamine) 5-HT6 receptor (Homo sapiens, UniProt P50406); assay: Serotonin 5-HT6 radioligand binding assay ([3H]LSD); conditions: compound at 0.1 μM, HeLa cells, read-out: Percent Inhibition of ligand binding, Serotonin (0.1 μM) 5-HT6
T4 construct: expressed in transfected cells; host or cells: human HeLa cells
Method: Compounds of the invention were incubated with 1.5 nM [3H]Lysergic acid diethylamide (LSD) for 120 min at 37° C. […] Receptor proteins were filtered and washed, the filters were then counted to determine [3H]LSD specifically bound. Compounds were screened at 1 μM or lower, using 1% DMSO as vehicle. Biochemical assay results are presented as the percent inhibition of specific binding in Table 4.

T4 sequence (P50406 whole entry): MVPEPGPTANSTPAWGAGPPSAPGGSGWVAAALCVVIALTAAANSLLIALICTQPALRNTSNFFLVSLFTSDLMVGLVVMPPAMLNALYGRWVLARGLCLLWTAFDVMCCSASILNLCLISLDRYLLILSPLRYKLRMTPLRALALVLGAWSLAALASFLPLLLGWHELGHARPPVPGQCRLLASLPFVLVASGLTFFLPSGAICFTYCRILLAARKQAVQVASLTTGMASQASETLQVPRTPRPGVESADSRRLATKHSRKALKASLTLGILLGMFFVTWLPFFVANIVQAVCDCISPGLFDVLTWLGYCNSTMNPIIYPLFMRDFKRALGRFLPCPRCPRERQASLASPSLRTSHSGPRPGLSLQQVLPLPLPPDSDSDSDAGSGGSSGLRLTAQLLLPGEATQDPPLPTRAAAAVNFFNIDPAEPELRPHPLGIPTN

Row | Structure (SMILES) | inhibition at 0.1 µM [1] [%] | inhibition at 0.1 µM [2] [%] | inhibition at 0.1 µM [3] [%] | inhibition at 0.1 µM [4] [%]
1 | Cc1ccc2c(c1)c1c(n2CC(C)(O)c2ccc(O)cc2)CCN(C)C1 (stereo not shown) [Compound 1-15, 4-(1-(2,8-dimethyl-3,4-dihydro-1H-pyrido[4,3-b]indol-5(2H)-yl)-2-hydroxypropan-2-yl)phenol] | 36 | 103 | 32 | 
2 | CN1CCc2c(c3cc(Cl)c(Cl)cc3n2CC(C)(O)c2ccncc2)C1 (stereo not shown) [Compound 1-17, 1-(7,8-dichloro-2-methyl-3,4-dihydro-1H-pyrido[4,3-b]indol-5(2H)-yl)-2-(pyridin-4-yl)propan-2-ol] | 0 | 64 | 64 | 
3 | COc1ccc([C@](C)(O)Cn2c3c(c4cc(C)ccc42)CN(C)CC3)cc1 [Compound 1-20, (S)-1-(2,8-Dimethyl-3,4-dihydro-1H-pyrido[4,3-b]indol-5(2H)-yl)-2-(4-methoxyphenyl)propan-2-ol] | 13 | 79 | 57 | 
4 | CC[C@](O)(Cn1c2c(c3cc(C)ccc31)CN(C)CC2)c1ccc(F)cc1 [Compound 1-60, (R)-1-(2,8-Dimethyl-3,4-dihydro-1H-pyrido[4,3-b]indol-5(2H)-yl)-2-(4-fluorophenyl)butan-2-ol] | -8 | 1 | 3 | 48
5 | CCCC[C@](O)(Cn1c2c(c3cc(Cl)ccc31)CN(C)CC2)c1ccc(F)cc1 [Compound 1-61, (R)-1-(8-Chloro-2-methyl-3,4-dihydro-1H-pyrido[4,3-b]indol-5(2H)-yl)-2-(4-fluorophenyl)hexan-2-ol] | 1 | 2 | -7 | 68
6 | CC[C@](O)(Cn1c2c(c3cc(C)ccc31)CN(C)CC2)c1ccncc1 [Compound 1-63, (R)-1-(2,8-Dimethyl-3,4-dihydro-1H-pyrido[4,3-b]indol-5(2H)-yl)-2-(pyridine-4-yl)butan-2-ol] | 8 | 47 | 12 | 25
7 | Cc1ccc2c(c1)c1c(n2CCc2ccc(C)nc2)CCN(CC(F)(F)F)C1 [Compound 1-65, 8-methyl-5-(2-(6-methylpyridin-3-yl)ethyl)-2-(2,2,2-trifluoroethyl)-2,3,4,5-tetrahydro-1H-pyrido[4,3-b]indole] | -10 | -9 | 6 | -6
